From article PMC6366404, “4-(3-Nitrophenyl)thiazol-2-ylhydrazone derivatives as antioxidants and selective hMAO-B inhibitors: synthesis, biological activity and computational analysis” (Journal of Enzyme Inhibition and Medicinal Chemistry, 2019)

Assays:
[1] = biological target: T1, hMAO-A (Homo sapiens, UniProt P21397); test: hMAO-A inhibition, IC50 determination (kynuramine fluorescence); format: biochemical
T1 sequence (P21397 1-527): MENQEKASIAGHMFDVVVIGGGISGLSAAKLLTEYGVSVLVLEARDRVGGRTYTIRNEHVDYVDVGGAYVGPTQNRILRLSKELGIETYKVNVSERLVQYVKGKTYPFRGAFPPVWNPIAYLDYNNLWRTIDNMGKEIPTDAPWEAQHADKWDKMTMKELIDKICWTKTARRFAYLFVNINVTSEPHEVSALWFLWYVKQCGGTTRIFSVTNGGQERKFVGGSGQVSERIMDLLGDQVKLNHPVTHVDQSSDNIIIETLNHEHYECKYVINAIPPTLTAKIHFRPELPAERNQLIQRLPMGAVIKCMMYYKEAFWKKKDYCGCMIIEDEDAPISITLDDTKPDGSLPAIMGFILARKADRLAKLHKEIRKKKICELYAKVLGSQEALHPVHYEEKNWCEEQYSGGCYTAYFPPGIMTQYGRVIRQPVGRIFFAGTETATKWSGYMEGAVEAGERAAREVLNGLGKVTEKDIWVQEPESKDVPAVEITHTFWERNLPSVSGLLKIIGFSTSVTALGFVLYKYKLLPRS
Method: (§1) The procedure for the measurement of IC50 values for the inhibition of MAO has been reported. The enzyme reactions were prepared to a volume of […] in potassium phosphate buffer at pH 7.4 (100 mM, made isotonic with KCl) and contained kynuramine (50 μM) and the test inhibitors (0.003–100 µM). Stock solutions of the test inhibitors were prepared in DMSO and added to the reactions to yield 4% DMSO. The enzyme reactions were initiated with the addition of recombinant hMAO-A (0.0075 mg protein/mL) or hMAO-B (0.015 mg protein/mL) and incubated for 20 min at 37 °C. At endpoint, the reactions were terminated with 80 µL sodium hydroxide (2N) and the fluorescence of 4-hydroxyquinoline, the oxidation product of kynuramine, was measured (λex = 310; λem = 400 nm)[33]. 4-Hydroxyquinoline was quantified with a calibration curve (0.047–1.56 μM) and the rate of 4-hydroxyquinoline formation was fitted to the one site competition model of the Prism 5 software package (GraphPad). From the resulting sigmoidal plots, the IC50 values were estimated. All enzyme reactions were carried out in triplicate and IC50 values are given as the mean ± standard deviation (SD).

[2] = biological target: T2, hMAO-B (Homo sapiens, UniProt P27338); test: hMAO-B inhibition, IC50 determination (kynuramine fluorescence); format: biochemical; details: ratio (IC50 hMAO-A)/(IC50 hMAO-B)
T2 sequence (P27338 1-520): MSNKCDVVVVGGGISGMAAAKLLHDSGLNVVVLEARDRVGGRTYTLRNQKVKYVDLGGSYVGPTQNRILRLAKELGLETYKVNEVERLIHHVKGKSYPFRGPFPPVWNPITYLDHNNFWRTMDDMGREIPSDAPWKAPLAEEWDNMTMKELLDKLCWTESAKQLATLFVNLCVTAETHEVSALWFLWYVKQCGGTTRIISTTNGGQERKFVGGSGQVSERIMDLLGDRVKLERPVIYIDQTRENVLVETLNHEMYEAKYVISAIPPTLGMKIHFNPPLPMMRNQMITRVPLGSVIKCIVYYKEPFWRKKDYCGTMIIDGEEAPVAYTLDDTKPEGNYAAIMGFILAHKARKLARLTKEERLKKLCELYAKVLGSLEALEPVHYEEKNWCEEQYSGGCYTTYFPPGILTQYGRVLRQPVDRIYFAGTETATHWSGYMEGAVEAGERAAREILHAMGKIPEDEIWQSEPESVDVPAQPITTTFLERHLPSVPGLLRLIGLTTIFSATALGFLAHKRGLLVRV
Method: as §1

[3] = Phosphomolybdenum assay (PhosphoMo), total antioxidant activity; details: concentration at which absorbance was 0.5
Method: The total antioxidant activity of the compounds was evaluated by phosphomolybdenum method according to Zengin et al.[35]. The sample solution (0.3 ml) was combined with 3 ml of reagent solution (0.6 M sulphuric acid, 28 mM sodium phosphate, and 4 mM ammonium molybdate) and the absorbance was recorded at 695 nm after 90 min incubation at 95 °C. The EC50, which is the effective concentration at which the absorbance was 0.5, was calculated for each compound and trolox, as a reference drug.

[4] = DPPH radical scavenging activity
Method: The radical scavenging effect of the compounds using the 1,1-diphenyl-2-picrylhydrazyl (DPPH) radical was estimated according to Zengin et al.[36]. The sample solution (1 ml) was added to 4 ml of a 0.004% solution of DPPH in methanol. The sample absorbance was recorded at 517 nm after 30 min incubation at room temperature in the dark.
(§2) The scavenging activity of the compounds on the ABTS radical cation [ABTS,2,2′-azino-bis(3-ethylbenzothiazoline)-6-sulphonic acid] was measured according to the method of Zengin et al.[37] with slight modification. Briefly, ABTS^+ was produced directly by reacting a 7 mM ABTS solution with 2.45 mM potassium persulphate and allowing the mixture to incubate for 12–16 h in the dark at room temperature. Prior to initiating the assay, the ABTS solution was diluted with methanol to an absorbance of 0.700 ± 0.02 at 734 nm. The sample solution (1 ml) was added to the ABTS^+ solution (2 ml) and mixed, and the sample absorbance was recorded at 734 nm after 30 min incubation at room temperature. The corresponding IC50 value, which is the effective concentration at which 50% of DPPH/ABTS radicals are scavenged, was calculated for each compound and trolox, as a reference drug.

[5] = ABTS radical cation scavenging activity
Method: as §2

[6] = Cupric ion reducing activity (CUPRAC)
Method: The cupric ion reducing activity (CUPRAC) was determined according to the method of Zengin et al.[38]. The sample solution (0.5 ml) was added to a premixed reaction mixture containing CuCl2 (1 ml, 10 mM), neocuproine (1 ml, 7.5 mM), and NH4Ac buffer (1 ml, 1 M, pH 7.0). Similarly, a blank was prepared by adding the sample solution (0.5 ml) to a premixed reaction mixture (3 ml) without CuCl2. The absorbances of the sample and blank were subsequently recorded at 450 nm after 30 min incubation at room temperature. The absorbance of the blank was subtracted from that of the sample.
(§3) The FRAP (ferric reducing antioxidant power) assay was carried out as described by Zengin et al.[38]. The sample solution (0.1 ml) was added to the premixed FRAP reagent (2 ml) containing acetate buffer (0.3 M, pH 3.6), 2,4,6-tris(2-pyridyl)-s-triazine (10 mM) in 40 mM HCl, and ferric chloride (20 mM) in a ratio of 10/1/1 (v/v/v). The absorbance of the sample was subsequently recorded at 593 nm after 30 min incubation at room temperature. Both results were expressed as EC50 values, using trolox as a reference drug.

[7] = FRAP (ferric reducing antioxidant power) assay
Method: as §3

[8] = Metal chelating activity on ferrous ions; details: ferrozine
Method: Metal chelating activity on ferrous ions was evaluated by the method previously described. Briefly, the sample solution (2 ml) was added to FeCl2 solution (0.05 ml, 2 mM). The reaction was initiated by the addition of 5 mM ferrozine (0.2 ml). Similarly, a blank was prepared by adding the sample solution (2 ml) to FeCl2 solution (0.05 ml, 2 mM) and water (0.2 ml) without ferrozine. Then, the sample and blank absorbance were recorded at 562 nm after incubation for 10 min at room temperature. The absorbance of the blank was subtracted from that of the sample. EDTA was used as a positive control and this property was expressed as IC50 value for each compound.

SMILES: O=[N+]([O-])c1cccc(-c2csc(NN=Cc3cccs3)n2)c1 [Compound 3, 1-(4-(3-Nitrophenyl)thiazol-2-yl)-2-(thiophen-2-ylmethylene)hydrazine]
- IC50 [1]: 57.2 µM
- Selectivity index (SI) for the MAO-B isoform [2]: 8412
- EC50 [3]: 1840 ± 180 µM
- IC50 [4]: 1190 ± 10 µM
- IC50 [5]: 1050 ± 10 µM
- EC50 [6]: 590 ± 10 µM
- EC50 [7]: 410 ± 20 µM
- IC50 [8]: > 5000 µM
